Reference: the NIST ThermoML archive (doi:10.1021/je900404r)
± gives the expanded uncertainty stated by the source.

Experiment: xn = mol fraction of the nth substance listed
Details: 101 kPa, Liquid, Vibrating tube method

ClC(Cl)C(Cl)Cl [1,1,2,2-tetrachloroethane] + O=C1CCCCC1
mass density [kg/m3]
Details | x1 = 0.1147 | x1 = 0.2121 | x1 = 0.3045 | x1 = 0.4052 | x1 = 0.4996 | x1 = 0.5909 | x1 = 0.6868 | x1 = 0.782 | x1 = 0.8798 | x1 = 1
288.15 K | 1029.34 ± 0.49 | 1094.87 ± 0.49 | 1156.78 ± 0.49 | 1223.8 ± 0.5 | 1286.07 ± 0.5 | 1345.8 ± 0.51 | 1407.73 ± 0.51 | 1468.5 ± 0.52 | 1530.11 ± 0.53 | 1604.75 ± 0.48
298.15 K | 1019.79 ± 0.49 | 1084.77 ± 0.49 | 1146.13 ± 0.49 | 1212.52 ± 0.49 | 1274.18 ± 0.5 | 1333.31 ± 0.5 | 1394.58 ± 0.51 | 1454.64 ± 0.52 | 1515.52 ± 0.53 | 1589.18 ± 0.48
308.15 K | 1010.2 ± 0.48 | 1074.62 ± 0.49 | 1135.43 ± 0.49 | 1201.2 ± 0.49 | 1262.26 ± 0.5 | 1320.77 ± 0.5 | 1381.38 ± 0.51 | 1440.76 ± 0.52 | 1500.89 ± 0.52 | 1573.57 ± 0.48
318.15 K | 1000.58 ± 0.48 | 1064.44 ± 0.48 | 1124.7 ± 0.49 | 1189.84 ± 0.49 | 1250.3 ± 0.49 | 1308.2 ± 0.5 | 1368.14 ± 0.51 | 1426.83 ± 0.51 | 1486.23 ± 0.52 | 1557.94 ± 0.47

CC(Cl)(Cl)Cl [1,1,1-trichloroethane] + O=C1CCCCC1
mass density [kg/m3]
Details | x1 = 0.1151 | x1 = 0.2288 | x1 = 0.3155 | x1 = 0.4163 | x1 = 0.5167 | x1 = 0.6059 | x1 = 0.7081 | x1 = 0.8062 | x1 = 0.8979 | x1 = 1
288.15 K | 996.74 ± 0.43 | 1041.75 ± 0.44 | 1076.19 ± 0.44 | 1116.3 ± 0.44 | 1156.17 ± 0.44 | 1191.52 ± 0.45 | 1231.85 ± 0.45 | 1270.3 ± 0.45 | 1305.81 ± 0.46 | 1344.95 ± 0.44
298.15 K | 987.13 ± 0.43 | 1031.43 ± 0.43 | 1065.28 ± 0.44 | 1104.68 ± 0.44 | 1143.81 ± 0.44 | 1178.45 ± 0.44 | 1217.94 ± 0.45 | 1255.52 ± 0.45 | 1290.16 ± 0.46 | 1328.27 ± 0.44
308.15 K | 977.49 ± 0.43 | 1021.06 ± 0.43 | 1054.33 ± 0.43 | 1093.01 ± 0.44 | 1131.39 ± 0.44 | 1165.33 ± 0.44 | 1203.95 ± 0.45 | 1240.64 ± 0.45 | 1274.41 ± 0.45 | 1311.45 ± 0.43
318.15 K | 967.81 ± 0.43 | 1010.65 ± 0.43 | 1043.33 ± 0.43 | 1081.28 ± 0.44 | 1118.9 ± 0.44 | 1152.12 ± 0.44 | 1189.86 ± 0.44 | 1225.64 ± 0.45 | 1258.51 ± 0.45 | 1294.47 ± 0.43
